Assay results: US7960425B2, “Pyrazole compounds and thrombopoietin receptor activators” (Nissan Chemical Industries, Ltd., priority 2005, dated 2011)

Assays:
[1] = test system: Human bone marrow CD34+ cells; assay: Megakaryocyte colony stimulating activity (megakaryocyte colony forming method); format: cell-based; conditions: 11 days, MegaCult-C, colonies of at least 8 stained megakaryocyte cells, average of at least 2 wells
Method: The action of the compounds of Synthetic Examples 2 to 6 of the present invention and Reference Synthetic Examples 6 to 7 on the proliferation, differentiation and maturation of megakaryocyte cells was measured by the megakaryocyte colony forming method using human bone marrow cells. Human bone marrow CD34^+ cells (Cambrex Bio Science Walkersville) were incubated on 2-well chamber slide for 11 days in a CO2 incubator (5% Co2, 37° C.) using MegaCult™-C (StemCell Technologies) containing 0.1% (v/v) of the compounds of Synthetic Examples dissolved in dimethyl sulfoxide. After dehydration and fixation, the cells were stained with an anti-glycoprotein IIb/IIIa antibody in accordance with the instruction by the manufacturer. The colonies consisting of at least 8 stained megakaryocyte cells in each well were counted under a microscope. The megakaryocyte colony counts in at least 2 wells were averaged.

[2] = Plasma concentration after oral administration to rats, determined by UT7/EPO-mpl proliferation bioassay; format: in vivo; conditions: rat, male Sprague-Dawley rats, 10 mg/kg, between 0.5 and 2 hours after administration, read-out: Cmax (maximum concentration in blood)
Method: Each of the compounds of Synthetic Examples was suspended in a 99/1 liquid mixture of 0.5% methylcellulose/Polyoxyethylene Sorbitan Monooleate and orally administered to 7-week-old male Sprague-Dawley rats (Japan SLC, Inc.) at a dose of 10 mg/kg/10 mL through a stomach tube. Between 0.5 and 2 hours after the administration of the compounds, blood was periodically collected from the cervical vein with heparin as the anticoagulant. The blood was centrifuged at 3500 min^−1 for 10 minutes to obtain plasma. The plasma was added to the assay system used for assay of proliferation of a thrombopoietin-dependent cell line UT7/EPO-mpl in Assay Example 1 at final concentrations of from 0.1 to 3%, and the cell proliferation was assayed. The concentration of each compound in plasma was calculated from the cell proliferation in the presence of plasma by comparison with a standard curve of cell proliferation versus compound concentration prepared for each compound. The maximum concentration (Cmax) of each of the compounds of Synthetic Examples in blood between 0.5 and 2 hours after the oral administration to rats is shown in Table 3.

Row | SMILES | Colony count at 1 μg/mL [1] | Cmax [2]
1 | C/C(=N\NC(=O)c1ccc(C(=O)O)s1)c1nn(C)c(-c2ccc(C(C)(C)C)cc2)c1O [Reference Synthetic Ex. 6, reference compound] | 1 | 
2 | CCN(CC)C(=O)c1ccc(C(=O)NN=C(C)c2nn(C)c(-c3ccc(C(F)(F)F)cc3)c2O)s1.[K] [Synthetic Example 1, 5-{1-[4-hydroxy-1-methyl-5-(4-trifluoromethylphenyl)-1H-pyrazol-3-yl]ethylidenehydrazinocarbonyl}thiophene-2-carboxylic Acid Diethylamide Potassium Salt] |  | 760 ng/mL
3 | CC(=NNC(=O)c1ccc(C(=O)NCc2ccccn2)s1)c1nn(C)c(-c2ccc(C(F)(F)F)cc2)c1O.[K] [Synthetic Example 2, 5-{1-[4-hydroxy-1-methyl-5-(4-trifluoromethylphenyl)-1H-pyrazol-3-yl]ethylidenehydrazinocarbonyl}thiophene-2-carboxylic Acid 2-picolylamide Potassium Salt] | 121 | 1200 ng/mL
4 | CC(=NNC(=O)c1ccc(C(=O)NC(C)C)s1)c1nn(C)c(-c2ccc(C(F)(F)F)cc2)c1O [Synthetic Example 3, 5-{1-[4-hydroxy-1-methyl-5-(4-trifluoromethylphenyl)-1H-pyrazol-3-yl]ethylidenehydrazinocarbonyl}thiophene-2-carboxylic Acid 2-propylamide] | 141 | 
5 | CC(=NNC(=O)c1ccc(C(=O)NCc2ccncc2)s1)c1nn(C)c(-c2ccc(C(F)(F)F)cc2)c1O [Synthetic Example 4, 5-{1-[4-hydroxy-1-methyl-5-(4-trifluoromethylphenyl)-1H-pyrazol-3-yl]ethylidenehydrazinocarbonyl}thiophene-2-carboxylic Acid 4-picolyamide] | 111 | 
6 | COCCNC(=O)c1ccc(C(=O)NN=C(C)c2nn(C)c(-c3ccc(C(F)(F)F)cc3)c2O)s1 [Synthetic Example 5, 5-{1-[4-hydroxy-1-methyl-5-(4-trifluoromethylphenyl)-1H-pyrazol-3-yl]ethylidenehydrazinocarbonyl}thiophene-2-carboxylic Acid 2-methoxyethylamide] | 335 | 
7 | CC(=NNC(=O)c1ccc(C(=O)NCc2ccncc2)s1)c1nn(C)c(-c2ccc(Cl)c(Cl)c2)c1O [Synthetic Example 6, 5-{1-[5-(3,4-dichlorophenyl)-4-hydroxy-1-methyl-1H-pyrazol-3-yl]ethylidenehydrazinocarbonyl}thiophene-2-carboxylic Acid 4-picolylamide] | 173 | 
